This is an account of results in patent publication US4112086A, “7β-Acylamino-3-(phosphonoalkyl and esterified phosphonoalkyl substituted tetrazolylthiomethyl)cephalosporins” (SmithKline Corporation, priority 1976, dated 1978).

Experiment [1] deals with E. coli SK 12140. The experiment can be described thus: in vitro testing, minimum inhibitory concentration (MIC). In kind it is cell-based. As for the experimental part:
(§1) The compounds of Formula I have anti-bacterial activity against both Gram-positive and Gram-negative organisms. Minimum inhibitory concentrations (MIC's) range from 0.1 to >200 μg/ml in in vitro testing. Test results for the compounds 7β-D-mandelamido-3-(1-diethoxyphosphinylmethyltetrazol-5-ylthiomethyl)-3-cephem-4-carboxylic acid sodium salt hydrate (Compound A), 7β-D-mandelamido-3-(1-ethoxyhydroxyphosphinylmethyltetrazol-5-ylthiomethyl)-3-cephem-4-carboxylic acid disodium salt hydrate (Compound B) and 7β-D-mandelamido-3-(1-phosphonomethyltetrazol-5-ylthiomethyl)-3-cephem-4-carboxylic acid (Compound C) are given below. Results shown in parenthesis are those obtained for cefazolin.

The test system of experiment [2] is Pseudo. aerug. HH 63. The experiment is described as above. In kind it is cell-based. Here is the method: as §1
For experiment [3], the system named is Strep. faecalis HH 34358. Described as above. In kind it is cell-based. Here is the method:
as §1

The test system of experiment [4] is Proteus mirabilis 444. The experiment is described as above. In kind it is cell-based. As for the experimental part: as §1
In experiment [5] the test system is S. aureus SK 127. The description is as above. In kind it is cell-based. The following applies: Staphylococcus aureus, SK127, cefazolin values in parenthesis. Here is the method:
as §1

The test system of experiment [6] is S. villaluz SK 70390. The experiment is described as above. The class given is cell-based. The following applies: cefazolin values in parenthesis. As for the experimental part:
as §1

The test system of experiment [7] is S. aureus SK 23390. The description is as above. The class given is cell-based. Here is the method: as §1
Experiment [8] has as its system E. coli HH 33779. The description is as above. The class given is cell-based. Here is the method: as §1
Experiment [9] concerns Kleb. pneumo. SK 4200. The experiment is described as above. In kind it is cell-based. The following applies: cefazolin values in parenthesis. As for the experimental part: as §1
The test system of experiment [10] is Kleb. pneumo. SK 1200. Described as above. In kind it is cell-based. As for the experimental part: as §1
For experiment [11], the system named is Entero. cloacae HH 31254. Described as above. The class given is cell-based. The following applies: Enterobacter cloacae, HH31254. As for the experimental part: as §1
Experiment [12] relates to Entero. aerog. ATCC 13048. Described as above. The class given is cell-based. Here is the method:
as §1

Experiment [13] concerns E. coli 12140. The experiment can be described thus: in vivo mouse protection test. As for the experimental part:
(§2) 4200 upon subcutaneous injection; cefazolin gave results of 4.4 mg/kg against E. coli 12140 and 7.2 mg/kg against Kleb. pneumo. 4200 upon subcutaneous administration.

Experiment [14] has as its system Kleb. pneumo. 4200. The experiment can be described thus: in vivo mouse protection test. The following applies: sc. As for the experimental part:
as §2

Experiment [15] relates to Proteus morgani 179. Description: in vitro testing, minimum inhibitory concentration (MIC). In kind it is cell-based. The following applies: cefazolin values in parenthesis. Here is the method: as §1
For experiment [16], the system named is Salmonella ATCC 12176. The experiment is described as above. The class given is cell-based. Here is the method: as §1
Experiment [17] concerns Serratia marc. ATCC 13880. Described as above. In kind it is cell-based. As for the experimental part:
as §1

[18] abbreviates: Escherichia coli, SK12140, E. coli SK 12140, in vitro, cefazolin values in parenthesis, read-out: MIC.
Where [19] appears, read: Pseudo. aerug. HH 63, in vitro, cefazolin values in parenthesis, read-out: MIC.
Setting [20] is: Enterococcus faecalis, HH34358, cefazolin values in parenthesis, read-out: MIC.
The mark [21] stands for this setting: Proteus mirabilis 444, cefazolin values in parenthesis, read-out: MIC.
[22] abbreviates: Staphylococcus aureus, SK23390, S. aureus SK 23390, in vitro, cefazolin values in parenthesis, read-out: MIC.
[23] abbreviates: Escherichia coli, HH33779, E. coli HH 33779, cefazolin values in parenthesis, read-out: MIC.
[24] abbreviates: Kleb. pneumo. SK 1200, in vitro, cefazolin values in parenthesis, read-out: MIC.
Where [25] appears, read: Entero. cloacae HH 31254, in vitro, cefazolin values in parenthesis, read-out: MIC.
Where [26] appears, read: Entero. aerog. ATCC 13048, in vitro, cefazolin values in parenthesis, read-out: MIC.
The mark [27] stands for this setting: Salmonella, ATCC12176, Salmonella ATCC 12176, cefazolin values in parenthesis, read-out: MIC.
[28] abbreviates: Serratia, ATCC13880, Serratia marc. ATCC 13880, cefazolin values in parenthesis, read-out: MIC.

Molecules are shown by their SMILES. ≈ marks a conversion by molar mass, not a printed value. Counter-ions that a name gives are not always drawn. Like-named read-outs stand apart in the source and are kept apart here.

As to `CCOP(=O)(O)Cn1nnnc1SCC1=C(C(=O)O)N2C(=O)[C@@H](NC(=O)[C@H](O)c3ccccc3)[C@H]2SC1` [Compound B, 7β-D-mandelamido-3-(1-ethoxyhydroxyphosphinylmethyltetrazol-5-ylthiomethyl)-3-cephem-4-carboxylic acid disodium salt hydrate], the MIC in experiment [1] (E. coli SK 12140, in vitro, cefazolin values in parenthesis, disodium salt hydrate) was 0.8 µg/mL; in [1] (setting [18]), 0.4 µg/mL; in experiment [2] (setting [19]), over 200 µg/mL; in [3] (setting [20]), 100 µg/mL; in experiment [3] (cefazolin values in parenthesis, disodium salt hydrate), 50 µg/mL; in [4] (setting [21]) it was 1.6 µg/mL. Also, the MIC was 6.3 µg/mL in experiment [5]; over 200 µg/mL in [6] (read-out: MIC); 1.6 µg/mL in [7] (setting [22]); 1.6 µg/mL in experiment [8] (setting [23]); 0.4 µg/mL in experiment [9] (read-out: MIC); 0.4 µg/mL in [10] (setting [24]). Further, the minimal inhibitory concentration (MIC) in experiment [11] (setting [25]) stood at 0.8 µg/mL; in experiment [12] (setting [26]), 3.1 µg/mL. The median effective dose (ED50) is 1.02 mg/kg in experiment [13] (Escherichia coli, 12140, sc) and 0.39 mg/kg in [14] (Mus musculus).

Regarding `O=C(O)C1=C(CSc2nnnn2CP(=O)(O)O)CS[C@@H]2[C@H](NC(=O)[C@H](O)c3ccccc3)C(=O)N12` [Compound C, 7β-D-mandelamido-3-(1-phosphonomethyltetrazol-5-ylthiomethyl)-3-cephem-4-carboxylic acid], the MIC in [1] (setting [18]) is 3.1 µg/mL (≈ 5.71 µM); in experiment [2] (setting [19]) it was over 200 µg/mL; in experiment [3] (setting [20]), 200 µg/mL (≈ 369 µM); in experiment [4] (setting [21]), 0.4 µg/mL (≈ 0.737 µM); in [5], 6.3 µg/mL (≈ 11.6 µM); in experiment [6] (read-out: MIC), over 200 µg/mL. The MIC in experiment [7] (setting [22]) was determined as 3.1 µg/mL (≈ 5.71 µM); in experiment [15] (read-out: MIC), 50 µg/mL (≈ 92.2 µM); in experiment [8] (setting [23]), 3.1 µg/mL (≈ 5.71 µM); in experiment [16] (setting [27]), 0.8 µg/mL (≈ 1.47 µM); in experiment [9] (read-out: MIC), 1.6 µg/mL (≈ 2.95 µM); in [10] (setting [24]), 0.8 µg/mL (≈ 1.47 µM). For the same compound, the MIC in experiment [11] (setting [25]) came out at 1.6 µg/mL (≈ 2.95 µM); in experiment [17] (setting [28]), 3.1 µg/mL (≈ 5.71 µM); in experiment [12] (setting [26]), 6.3 µg/mL (≈ 11.6 µM).

Take `CCOP(=O)(Cn1nnnc1SCC1=C(C(=O)[O-])N2C(=O)[C@@H](NC(=O)[C@H](O)c3ccccc3)[C@H]2SC1)OCC.O.[Na+]` [Compound A, 7β-D-mandelamido-3-(1-diethoxyphosphinylmethyltetrazol-5-ylthiomethyl)-3-cephem-4-carboxylic acid sodium salt hydrate]: the MIC is 6.3 µg/mL in experiment [1] (Escherichia coli, SK12140); over 200 µg/mL in [2]; 12.5 µg/mL in [3] (Enterococcus faecalis, HH34358, cefazolin values in parenthesis); 25 µg/mL in experiment [3] (cefazolin values in parenthesis, sodium salt hydrate); 1.6 µg/mL in experiment [4] (Proteus mirabilis 444, cefazolin values in parenthesis, sodium salt hydrate); 3.1 µg/mL in experiment [4] (Proteus mirabilis, 444, Proteus mirabilis 444, cefazolin values in parenthesis). The MIC in experiment [6] (read-out: MIC) was determined as 50 µg/mL; in experiment [7] (Staphylococcus aureus, SK23390) it was 0.8 µg/mL; in [15], 3.1 µg/mL; in experiment [15] (sodium salt hydrate), 1.6 µg/mL; in [8] (E. coli HH 33779, cefazolin values in parenthesis, sodium salt hydrate), 6.3 µg/mL; in experiment [8] (Escherichia coli, HH33779, E. coli HH 33779, cefazolin values in parenthesis), 12.5 µg/mL. For the same compound, the minimal inhibitory concentration (MIC) in experiment [16] (Salmonella ATCC 12176, cefazolin values in parenthesis, sodium salt hydrate) was 1.6 µg/mL; in experiment [16] (Salmonella, ATCC12176, Salmonella ATCC 12176, cefazolin values in parenthesis), 3.1 µg/mL; in experiment [9], 3.1 µg/mL; in experiment [9] (sodium salt hydrate), 1.6 µg/mL; in experiment [10], 3.1 µg/mL; in experiment [11], 3.1 µg/mL. In addition, the MIC in [17] (Serratia marc. ATCC 13880, cefazolin values in parenthesis, sodium salt hydrate) turned out to be 12.5 µg/mL; in experiment [17] (Serratia, ATCC13880, Serratia marc. ATCC 13880, cefazolin values in parenthesis) it was 25 µg/mL; in experiment [12] it was 12.5 µg/mL.

Take `Cc1nnc(SCC2=C(C(=O)O)N3C(=O)[C@@H](NC(=O)Cn4cnnn4)[C@H]3SC2)s1` [cefazolin, reference compound]: the minimum inhibitory concentration (MIC) in experiment [1] (setting [18]) was 0.8 µg/mL (≈ 1.76 µM); in [2] (setting [19]) it was over 200 µg/mL; in [3] (setting [20]) it was 6.3 µg/mL (≈ 13.9 µM); in experiment [4] (setting [21]), 3.1 µg/mL (≈ 6.82 µM); in experiment [5], 0.4 µg/mL (≈ 0.88 µM); in experiment [6], 100 µg/mL (≈ 220 µM). Also, the MIC was 0.2 µg/mL (≈ 0.44 µM) in experiment [7] (S. aureus SK 23390, in vitro, cefazolin values in parenthesis); 0.4 µg/mL (≈ 0.88 µM) in [7] (setting [22]); 100 µg/mL (≈ 220 µM) in experiment [15]; 200 µg/mL (≈ 440 µM) in experiment [15] (read-out: MIC); 0.8 µg/mL (≈ 1.76 µM) in experiment [8] (E. coli HH 33779, cefazolin values in parenthesis); 1.6 µg/mL (≈ 3.52 µM) in [8] (setting [23]). The minimum inhibitory concentration (MIC) in experiment [16] (Salmonella ATCC 12176, cefazolin values in parenthesis) was 0.4 µg/mL (≈ 0.88 µM); in [16] (setting [27]) it was 0.8 µg/mL (≈ 1.76 µM); in experiment [9] (read-out: MIC), 1.6 µg/mL (≈ 3.52 µM); in experiment [10] (Kleb. pneumo. SK 1200, in vitro, cefazolin values in parenthesis) it was 0.4 µg/mL (≈ 0.88 µM); in [10] (setting [24]) it was 0.8 µg/mL (≈ 1.76 µM); in experiment [11] (setting [25]) it was 0.8 µg/mL (≈ 1.76 µM). Besides, the MIC in [17] (ATCC13880, Serratia marc. ATCC 13880, cefazolin values in parenthesis, read-out: MIC) is 50 µg/mL (≈ 110 µM); in [17] (setting [28]), over 200 µg/mL. Also, the ED50 in experiment [13] (Escherichia coli, sc, mouse protection, E. coli 12140, subcutaneous, read-out: ED50) worked out at 4.4 mg/kg; in experiment [14] (mouse protection, Kleb. pneumo. 4200, subcutaneous, read-out: ED50) it was 7.2 mg/kg.

What is called MIC is the lowest concentration that inhibits growth of the organism. By ED50 is commonly meant the dose at which the effect has come halfway, by size or by number of responders.
